Measured values taken from patent publication US7335815B2, “Nucleic acid sequences to proteins involved in isoprenoid synthesis” (Calgene LLC, priority 1999, dated 2008).

Tests used:
[1] = background statement; cited from earlier work
[2] = system: E. coli strain JC7623dxr:CAT; assay: growth of dxr-disrupted E. coli strain JC7623dxr:CAT (ME auxotrophy, complementation studies); assay type: cell-based, Escherichia coli; conditions: strain JC7623dxr:CAT carrying plasmid pBAD-DXR or pBAD-GFPuv
Source text: The region extending from the 5′-region of the dxr gene to the 3′-flanking region of the yaeS gene was amplified by PCR using genomic DNA isolated from the wild type E. coli strain-W3110 (Kohara et al., 1987) and the primers P1(5′-CTCTGGATGT CATATGAAGCAACTC-3′ (SEQ ID NO:3); the underlined ATG corresponds to the translation start codon of the dxr gene) and P2 (5′-CCGCATAACACCGCCAACC-3′ (SEQ ID NO:4); located at the 3′-flanking region of the yaeS gene). The reaction mixture for the PCR was prepared in a final volume of 50 μl, containing the DNA template (100 ng), 0.5 μM of each primer, 200 μM of each deoxynucleoside triphosphate, 20 mM of Tris-HCl adjusted to pH 8.8, 2 mM Of MgSO4, 10 mM of KCI, 10 mM of (NH4)2SO4, 0.1 mg/ml of BSA and 0.1% Triton X-100. The sample was covered with mineral oil, incubated at 94° C. for 3 min and cooled to 80° C. Pfu DNA polymerase (1.25 units, Stratagene) was added and the reaction mixture was incubated for 30 cycles consisting of 45 sec at 94° C., 45 sec at 59° C. and 10 min at 72° C., followed by a final step of 10 min at 72° C. After amplification, adenines were added to the 3′ ends of the PCR product as indicated by the manufacturers protocol and the adenylated product was cloned into the pGEM-T vector (Promega), to create plasmid pMJ1. […]

Row | Compound | vitamin E activity [1] [IU/mg] | growth of strain on medium containing the substance [2]
1 | Cc1c(C)c2c(c(C)c1O)CCC(C)(CCCC(C)CCCC(C)CCCC(C)C)O2 (stereo not drawn) [synthetic α-tocopherol, d,l-α-tocopherol] | 1.1 | –
2 | Cc1c(C)c2c(c(C)c1O)CC[C@@](C)(CCC[C@H](C)CCC[C@H](C)CCCC(C)C)O2 [d-α-tocopherol] | 1.49 | –
3 | C[C@](O)(CO)[C@H](O)CO [ME, 2-C-methyl-D-erythritol] | – | grows on medium containing ME
